Results from PMC10792358 (Clinical Cancer Research, 2023).

Columns and labels:
Plasma pharmacokinetics = details: data not shown
[1] = system: HR+/HER2− breast cancer with PIK3CA mutations; details: patients with PIK3CA mutations, few treated with CDK4/6i; cited from earlier work

- effect of molibresib on fulvestrant pharmacokinetics (Plasma pharmacokinetics; fulvestrant predose concentrations): lack of effect
- predose concentrations (Plasma pharmacokinetics; fulvestrant with molibresib, compared with ref 18): within the range anticipated
Structure (SMILES): C[C@]12CC[C@@H]3c4ccc(O)cc4C[C@@H](CCCCCCCCC[S+]([O-])CCCC(F)(F)C(F)(F)F)[C@H]3[C@@H]1CC[C@@H]2O (stereo partly drawn) [fulvestrant]
- ORR [1]: 12.8%
